How the values were obtained:
[1] = tested on: T1, wild-type (GRR) human STING cGAMP binding domain (residues 155-341); test: Differential Scanning Fluorimetry (DSF), stability of STING protein against thermal denaturation; conditions: 100 uM compound, 3 uM target protein
T1 construct: His-TEV-hSTING (WT); TEV protease cleavage site (N); made in house; host or cells: E. coli BL21 DE3
Experimental: Dye fluorescence is quenched in aqueous environment and increases upon association of the dye with the hydrophobic parts of the unfolding protein. […] The inflection point of the curve represents the “melting” temperature of the protein (Tm) which is calculated numerically using the Boltzmann equation.
Method: The thermal stability of the STING protein was measured using a specific expression construct of the cGAMP binding domain of wild-type (GRR) human STING comprising residues 155-341 and a N-terminal 8x His-tag in assay buffer containing 20 mM Tris, 150 mM NaCl at pH7.5.
The assay uses Hard-Shell®PCR Plates 384-Well CLR/WHT (Catalog #HSP3805, BIO-RAD), Microseal®‘B’ Adhesive Seals for PCR Plates (Catalog #MSB-1001, BIO-RAD) and was run on a CFX384 Real-Time System (Bio-Rad).
A DMSO stock solution of SYPRO orange (SIGMA S5692-500UL) was prepared.
Compound stock solutions (10 mM in DMSO) were diluted 1:2 in DMSO to an intermediate compound concentration of 5 mM and then further diluted 1:40 in assay buffer resulting in a compound concentration of 125 μM and 2.5% DMSO.
Fluorescent dye stock solution (5000×SYPRO Orange) was then mixed with target protein and buffer to a concentration of 15 uM Protein and 25×SYPRO Orange. 2 ul of this protein-dye-mixture was added to 8 ul compound solution. Final volume was 10 uL. 3-6 well positions were used as negative control (protein with 2% DMSO). The plates were prepared for duplicate measurement and centrifuged for 2 min at 1000 g. In the measurement, 160 cycles of 0.5° C. were used (temperature ramp 15 s/cycle, 15° C. to 95° C.).
Final Assay concentrations for compound characterization were as follows:
100 uM compound, 3 uM target protein, 5×SYPRO Orange, 2% DMSO in 10 ul. All dispensing steps were performed using a HamiltonStar pipetting robot (Hamilton).
Dissociation curves were processed in Bio-Rad CFX Manager. Peak type was set to “negative”.
Compound codes for screen were assigned in the plate layout.
Two replicates of TM measurements were averaged, and the standard deviation was calculated. In cases of SD>1.5° C. the measurement was repeated.
The melting point (Tm) obtained for STING protein alone was subtracted from T obtained for protein incubated with ligand to generate ΔTm values.
Protein production and purification: The protein used for the biophysical experiments was a recombinant human STING protein comprising its cytosolic ectodomain. A codon optimized DNA sequence (for expression in Escherichia coli) encoding amino acid residues 155 to 341 (Swiss Prot Q86WV6) of human STING (WT) was synthesized by GeneArt (Regensburg, Germany) and inserted into a pET17b E. coli expression vector. The protein construct encodes an N-terminal 8× His-tag followed by tobacco etch virus protease (TEV) cleavage site and the above STING gene sequence. The resulting protein sequence for the used STING variant is listed below:
For expression of recombinant human STING above construct was transformed into E. coli BL21 DE3 strain and grown in shake flasks in LB-medium at 37° C. Expression was induced by addition of isopropyl β-D-1-thiogalactopyranoside to a final concentration of 1 mM and cultures shaken overnight. Cell pellets were centrifuged and stored at −70° C. until further use. Protein was purified by cell thawing in lysis buffer (20 mM TRIS-HCl, pH 8, 300 mM NaCl, 2 mM mercaptoethanol, 20 mM imidazole, Complete Protease Inhibitor (Roche) and DNase (Roche)), followed by metal affinity purification using Ni-NTA resins and elution buffer consisting of 20 mM TRIS-HCl, pH 8, 300 mM NaCl, 2 mM mercaptoethanol, 300 mM imidazole and size exclusion chromatography in running buffer (20 mM TRIS-HCl, pH 8, 100 mM NaCl, 2 mM DTT). The peak fraction was collected and concentrated to 2.5 mg/mL.

[2] = tested on: T2, STING; test: Human whole blood assay (HWBA), cGAMP-stimulated IFNα2α production; type: cell-based; conditions: human whole blood stimulated by cGAMP
T2 construct: from tissue; host or cells: human whole blood from healthy donors
Experimental: For the detection of STING inhibition in physiological environment human whole blood was stimulated by the cyclic dinucleotide cGAMP. Pathway activity was monitored by measuring the IFNα2α production.
Assay method: Compounds were delivered as 10 mM DMSO solution and serial diluted and transferred to the 96-well Cell culture Plate (Corning #3595), prefilled with 20 μl OptiMEM (Gibco #11058-021) in each well, using an Echo acoustic dispenser. Typically, 8 concentrations were used with the highest concentration at 10 μM in the final assay volume followed by ^˜1:5 dilution steps. DMSO concentration was set to 0.1% in the final assay volume. The 96 well assay plate contained 9 test compounds, a reference compound and DMSO in control wells.
Collection of human whole blood from 3 or more healthy donors (male or female, no medication for 7 days, exception contraceptive and thyroxine) as Na-citrate blood (e.g. 3.8% in Monovettes from Sarstedt) is conducted in parallel. Whole blood was kept at room temperature for a maximum of 3 hours after collection until use in the assay.
160 μl of the whole blood samples were transferred to each well of the 96-well assay plates filled with compound/OptiMEM. All assay plates are prepared as duplicates with blood from different donors. Blood plates were kept at room temperature for 60 minutes and continuous shaking with 450 rpm, covered with the lid, but not sealed.
A 10× cGAMP assay solution was diluted from a 2 mM stock solution in 1×HBSS immediately before use at room temperature. 20 μl of the 10× cGAMP/HBSS were added to all compound and all high control wells, whereas HBSS only was added to all low control wells.
After covering assay plates with aera seals and the lid, blood plates were kept at room temperature for 30 minutes and continuous shaking with 450 rpm, followed by an overnight incubation of 22 h at 37° C. in the incubator, without shaking.
For the detection of IFNα-2α in human plasma, the biotinylated capture antibody (Antibody set IFNA2, Meso Scale Diagnostics #B21VH-3, including coating and capture antibody) was diluted 1:17.5 in Diluent 100 (Meso Scale Diagnostics #R50AA-4, according to the manufacturer. U-Plex MSD GOLD 96-well Small Spot Streptavidin SECTOR Plates (Meso Scale Diagnostics #L45SA-5) were coated with 25 μl diluted capture antibody. Coated plates were incubated for 60 min at room temperature under continuous shaking at 700 rpm. MSD IFNα-2α plates were washed three times with 150 μl wash buffer (1×HBSS, 0.05% Tween).
After blocking the plates with 100 μl block solution/well (1×HBSS with 0.2% Tween, 2% BSA) for 60 min at room temperature and continuous shaking at 700 rpm, plates were emptied as dry as possible by dumping just before continuing with the human plasma. Whole Blood assay plates were centrifuged at 1600 rpm for 10 minutes. 25 μl of supernatant was transferred with a pipetting robotics from each whole blood plate to the corresponding IFNα-2α plate. Plates were sealed with microplate seals and kept at room temperature again under continuous shaking at 700 rpm for two hours. Next MSD IFNα-2α plates were washed three times with 150 μl wash buffer (1×HBSS, 0.05% Tween), before adding 25 μl MSD SULFO-TAG IFNα-2α Antibody solution (1:100 diluted in Diluent 3 (Meso Scale Diagnostics #R50AP-2) to each well of the plates. Afterwards plates were sealed with microplate seals and kept at room temperature again under continuous shaking at 700 rpm for two hours. Finally, MSD IFNα-2α plates were washed three times with 150 μl wash buffer (1×HBSS, 0.05% Tween). 150 μl 2× Read buffer was added to each well and plates were immediately measured with the MSD Sector S600 Reader using the vendor barcode.
Data evaluation and calculation: For data evaluation and calculation, % control calculation of each well was based on the mean of high (cGAMP stimulated control) and mean of low (unstimulated control) controls by using the following formula: […]

Structure (SMILES): Cn1c(-c2ccc(P(C)(C)=O)cc2OC(F)(F)F)nc(-c2cccc3nn(-c4cc(C(F)(F)F)[nH]n4)cc23)c1C1CC1 [Example 21, 4-{5-cyclopropyl-2-[4-(dimethylphosphoryl)-2-(trifluoromethoxy)phenyl]-1-methylimidazol-4-yl}-2-[5-(trifluoromethyl)-1H-pyrazol-3-yl]indazole]
- DSF ΔTm (K) [1]: 29 K
- IC50 [2]: 0.13 µM

Structure (SMILES): CNC(=O)c1ccc(-c2nc(-c3cccc4nn(-c5cn(C6CC6)nc5OC)cc34)c(C3CC3)n2C)c(OC(F)(F)F)c1 [Example 1, 4-{5-cyclopropyl-4-[2-(1-cyclopropyl-3-methoxy-1H-pyrazol-4-yl)-2H-indazol-4-yl]-1-methyl-1H-imidazol-2-yl}-N-methyl-3-(trifluoromethoxy)benzamide]
- DSF ΔTm (K) [1]: 28 K
- IC50 [2]: 0.082 µM
